Test results taken from patent US6004932A, “Use of glucagon as a metabolic conditioner for dairy cows and other ruminants” (Iowa State University Research Foundation, Inc., priority 1998, dated 1999).

Tests used:
Format in all cases: in vivo
[1] = system: multiparous Holstein cows; experiment: Effect of glucagon on liver triacylglycerol (lipid) levels of dairy cows, liver biopsies
Description: (§1) Glucagon purified from bovine pancreas, was weighed, dissolved in 0.09% NaCl adjusted to pH 10.5, and diluted so that the amount to be infused daily was contained in 480 ml to allow for an infusion rate of 20 ml/h. All glassware that was to be in contact with glucagon was rinsed with a solution of 1.0% bovine serum albumin to prevent adherence of glucagon to glass surfaces.
The four groups of 10 multiparous Holstein cows per group that were used for the main trial were normal controls (NC), normal cows treated with glucagon (NTG), susceptible controls that should be inducible into ketosis (SC), and susceptible cows treated with glucagon (STG). […]
(§2) A liver biopsy was taken at 7 days postpartum and analyzed immediately for triacylglycerols and glycogen. […]
(§3) On d 14 postpartum, the SC and the STG groups began the FRBD (feed restriction and 1,3-butanediol in the diet) protocol in which feed intake was restricted to 80% of the average intake for the previous 2 days and 1,3-butanediol (BD) was added, a precursor of ketone bodies, to the ration in increasing quantities either until the cow became ketotic or until 1.4 kg of BD was offered daily. […]
(§4) Glycogen and triacylglycerol concentrations of liver samples were determined as described by Mills, S. E. et al., "Characterization of metabolic changes during a protocol for inducing lactation ketosis in dairy cows", J. Dairy Sci. 69:352 (1986a). […]

dairy cows = experiment: Toxicity observation during glucagon treatment of dairy cows; conditions: treated dairy cows, 10 mg/day
Description: On d 14 postpartum, the SC and the STG groups began the FRBD (feed restriction and 1,3-butanediol in the diet) protocol in which feed intake was restricted to 80% of the average intake for the previous 2 days and 1,3-butanediol (BD) was added, a precursor of ketone bodies, to the ration in increasing quantities either until the cow became ketotic or until 1.4 kg of BD was offered daily. The STG group at 21 days postpartum began to receive a continuous intravenous infusion of 10 mg of glucagon daily, which continued for 14 days. The SC group were infused with saline as a vehicle control. The NC and the NTG groups continued to receive feed for ad libitum intake, but the NTG group received an infusion of glucagon from d 21 to 35 postpartum and the NC group was infused with vehicle control. (The NTG group gave information on how normal early lactation cows respond to 14-day intravenous infusions of glucagon).

[2] = system: early lactation dairy cows; experiment: Preliminary data on glucagon doses above 10 mg/day in early lactation dairy cows; conditions: doses of greater than 10 mg/day; inventors' preliminary data
[3] = system: multiparous Holstein cows; experiment: Effect of glucagon on liver glycogen content of dairy cows, liver biopsies; conditions: NTG and STG groups, FIG. 3
Description: as §1
The four groups of 10 multiparous Holstein cows per group that were used for the main trial were normal controls (NC), normal cows treated with glucagon (NTG), susceptible controls that should be inducible into ketosis (SC), and susceptible cows treated with glucagon (STG). The two groups of 10 normal cows were selected from cows that had body condition scores at calving that ranged from 3.2 to 3.8. The two groups of 10 susceptible cows were selected from obese cows that have been fed at 2 times NRC requirements for energy during late lactation and throughout the dry period so they calved at a body condition score of 4.0 to 4.5. […]
as §2, §3
as §4, with “(1986a). Total lipid content was measured as described by Drackley, J. K. et al., "Metabolic changes in blood and liver of dairy cows during feed restriction or administration of 1,3-butanediol", J. Dairy Sci., 74:4254 (1991).” for “(1986a).”

glucagon
liver triacylglycerol, covariate adjusted to average d-7 value, normal cows ([1]; NTG vs NC, FIG. 2): only a slight difference between the NC and the NTG groups
change in concentration of lipid in livers of normal cows ([1]; normal cows (NTG vs NC), 10 mg/d intravenous infusion d 21-35 postpartum, FIG. 1): no major decrease
glucagon toxicity in the animals (dairy cows): without any indication of glucagon toxicity
incidence of fatty liver at high dose [2]: may actually increase the incidence of fatty liver
liver glycogen content after d 38, before the 42-d biopsy ([3]; after termination of infusion): dropped dramatically
liver glycogen concentration from the 20-d to the 23-d biopsy sample ([3]; after infusions began at d 21): decreased
liver glycogen concentration from d 23 up to the d 38 biopsy ([3]; d 38 is 3 d after infusions stopped): increased at a parallel rate
